The target in this assay is human PCSK9 / human LDLR EGFa domain interaction (Homo sapiens, UniProt Q8NBP7). The experiment in a line: TR-FRET assay of inhibition of the PCSK9-LDLR protein-protein interaction. It is filed as binding. The following applies: 20 nM avitag-biotinylated human PCSK9, 20 nM his-tagged human LDLR EGFa domain, 2 hours, room temperature. The procedure:
A time-resolved fluorescence resonance energy (TR-FRET) assay was used to measure inhibition of the PCSK9-LDLR protein-protein interaction. Briefly, 20 nM avitag-biotinylated human PCSK9 was incubated with 20 nM his-tagged human LDLR EGFa domain in the presence of 5 nM LANCE Ulight Streptavidin (Perkin Elmer) and 5 nM europium-Anti-6×His (Perkin Elmer) for 2 hours covered at room temperature in buffer containing 50 mM HEPES, 150 mM NaCl, 5 mM CaCl2), 0.01% BSA and 0.01% Surfactant P20. Compounds were tested in dose-response and concentrations giving half-maximal inhibition calculated using a 4-parameter fit equation.

In patent US11814444B2, “Cyclic polypeptides for PCSK9 inhibition” (Ra Pharmaceuticals, Inc., priority 2018, dated 2023) one finds IC50 data, which are given here for 17 molecules.

Numbered stars: 1 amine (or outer) side, 2 acyl side, 3 side chain; on linkers, the order of the positions; unused ones are H or OH. Bridge positions count the residues as written; N and C are the ends. Square brackets hold non-standard residues; d marks the D form. Peptide text beside a SMILES is read from it. Phe(4-COOH) = N[C@@H](Cc1ccc(C(=O)O)cc1)C(=O)O; Trp(7-aza) = N[C@@H](Cc1c[nH]c2ncccc12)C(=O)O; NMeW = CN[C@@H](Cc1c[nH]c2ccccc12)C(=O)O; X1 = C[C@@](N[*:1])(C(=O)[*:2])c1ccccc1; 1Nal = N[C@@H](Cc1cccc2ccccc12)C(=O)O; 2Nal = N[C@@H](Cc1ccc2ccccc2c1)C(=O)O; Ac4c(3,3-F2) = NC1(C(=O)O)CC(F)(F)C1; mXylylene = c1cc(C[*:1])cc(C[*:2])c1; Bta = N[C@@H](Cc1csc2ccccc12)C(=O)O; Val(3-OH) = CC(C)(O)[C@H](N)C(=O)O; Aic = NC1(C(=O)O)Cc2ccccc2C1; Chg = N[C@H](C(=O)O)C1CCCCC1; Tle = CC(C)(C)[C@H](N)C(=O)O; αMeV = CC(C)[C@](C)(N)C(=O)O; hSer = N[C@@H](CCO)C(=O)O; Iva = CC[C@](C)(N)C(=O)O; Nva = CCC[C@H](N)C(=O)O; Ac4c = NC1(C(=O)O)CCC1; Aib = CC(C)(N)C(=O)O; Mpa = O=C(O)CCS

Sequence of human PCSK9 / human LDLR EGFa domain interaction (Q8NBP7 153-692): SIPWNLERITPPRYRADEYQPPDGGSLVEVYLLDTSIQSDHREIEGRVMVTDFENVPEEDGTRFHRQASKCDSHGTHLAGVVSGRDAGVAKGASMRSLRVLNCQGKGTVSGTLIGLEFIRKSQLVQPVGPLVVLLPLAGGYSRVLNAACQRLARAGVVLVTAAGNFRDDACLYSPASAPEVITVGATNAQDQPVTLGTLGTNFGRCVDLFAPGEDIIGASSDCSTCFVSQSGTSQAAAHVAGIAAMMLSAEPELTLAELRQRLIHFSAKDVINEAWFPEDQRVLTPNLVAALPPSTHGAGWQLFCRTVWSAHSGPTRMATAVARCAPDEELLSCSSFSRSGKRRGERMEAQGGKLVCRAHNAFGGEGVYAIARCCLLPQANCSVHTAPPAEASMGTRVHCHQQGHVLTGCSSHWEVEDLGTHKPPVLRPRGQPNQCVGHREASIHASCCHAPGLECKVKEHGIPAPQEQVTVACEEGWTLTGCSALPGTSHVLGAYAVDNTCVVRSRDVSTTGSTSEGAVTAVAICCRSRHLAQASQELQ
Sequence of human PCSK9 / human LDLR EGFa domain interaction (Q8NBP7 31-152 partner limits assumed): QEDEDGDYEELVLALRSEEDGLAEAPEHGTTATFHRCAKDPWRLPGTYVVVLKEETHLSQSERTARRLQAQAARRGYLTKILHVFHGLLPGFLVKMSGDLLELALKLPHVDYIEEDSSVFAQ

A word on the IC50: it is the concentration that inhibits the measured activity by half. For `CCC[C@@H]1NC(=O)[C@H]([C@@H](C)O)NC(=O)[C@@H]2CCCN2C(=O)[C@H](Cc2ccc(O)cc2)NC(=O)[C@H](C(C)(C)C)NC(=O)[C@@H](NC(C)=O)CSCc2cccc(c2)CSC[C@@H](C(N)=O)NC(=O)[C@H]([C@@H](C)O)NC(=O)[C@](C)(C(C)C)NC(=O)[C@H](Cc2ccc(O)cc2)NC(=O)[C@H](C)NC1=O` [Compound 173] (Ac-C[Tle]YPT[Nva]AY[αMeV]TC-NH2; linker 1-11 via mXylylene), the IC50 lay in the range of 0.1 to 1 µM.

`CCC[C@@H]1NC(=O)[C@H](Cc2c[nH]c3ccccc23)NC(=O)[C@H]([C@@H](C)O)NC(=O)[C@@H]2CCCN2C(=O)[C@H](Cc2ccc(O)cc2)NC(=O)[C@H](C(C)(C)C)NC(=O)CCSCc2cccc(c2)CSC[C@@H](C(N)=O)NC(=O)[C@H]([C@@H](C)O)NC(=O)[C@](C)(C(C)C)NC(=O)[C@H](Cc2ccc(O)cc2)NC(=O)[C@H](C)NC1=O` [Compound 177] ([Mpa][Tle]YPTW[Nva]AY[αMeV]TC-NH2; linker 1-12 via mXylylene) returned an IC50 of 1 to 21 µM.

On to `CC[C@]1(C)NC(=O)[C@H](Cc2c[nH]c3ncccc23)NC(=O)[C@H]([C@@H](C)O)NC(=O)[C@@H]2CCCN2C(=O)[C@H](Cc2ccc(O)cc2)NC(=O)[C@H](C(C)(C)C)NC(=O)[C@@H](NC(C)=O)CSCc2cccc(c2)CSC[C@H](C(N)=O)NC(=O)[C@H]([C@@H](C)O)NC(=O)[C@](C)(C(C)C)NC(=O)[C@H](Cc2ccc(O)cc2)NC(=O)[C@H](C)NC1=O` [Compound 193] (Ac-C[Tle]YPT[Trp(7-aza)][Iva]AY[αMeV]T[dC]-NH2; linker 1-12 via mXylylene), for which the IC50 was in the range of 0.001 to 0.1 µM.

`CC(=O)N[C@H]1CSCc2cccc(c2)CSC[C@H](C(N)=O)NC(=O)[C@H]([C@@H](C)O)NC(=O)[C@](C)(C(C)C)NC(=O)[C@H](Cc2ccc(O)cc2)NC(=O)[C@H](C)NC(=O)C2(CCC2)NC(=O)[C@H](Cc2c[nH]c3ncccc23)NC(=O)[C@H](C(C)(C)O)NC(=O)[C@@H]2CCCN2C(=O)[C@H](Cc2ccc(O)cc2)NC(=O)[C@H](C(C)(C)C)NC1=O` [Compound 194] (Ac-C[Tle]YP[Val(3-OH)][Trp(7-aza)][Ac4c]AY[αMeV]T[dC]-NH2; linker 1-12 via mXylylene) came in with an IC50 of 0.001 to 0.1 µM.

`CC(=O)N[C@H]1CSCc2cccc(c2)CSC[C@H](C(N)=O)NC(=O)[C@H]([C@@H](C)O)NC(=O)[C@](C)(C(C)C)NC(=O)[C@H](Cc2ccc(O)cc2)NC(=O)[C@H](C)NC(=O)C2(CC(F)(F)C2)NC(=O)[C@H](Cc2c[nH]c3ncccc23)NC(=O)[C@H]([C@@H](C)O)NC(=O)[C@@H]2CCCN2C(=O)[C@H](Cc2ccc(O)cc2)NC(=O)[C@H](C(C)(C)C)NC1=O` [Compound 195] (Ac-C[Tle]YPT[Trp(7-aza)][Ac4c(3,3-F2)]AY[αMeV]T[dC]-NH2; linker 1-12 via mXylylene) returned a 50% inhibitory concentration (IC50) of 1 to 21 µM.

In turn, `CC(=O)N[C@H]1CSCc2cccc(c2)CSC[C@H](C(N)=O)NC(=O)[C@H]([C@@H](C)O)NC(=O)[C@](C)(C(C)C)NC(=O)[C@H](Cc2ccc(O)cc2)NC(=O)[C@H](C)NC(=O)C2(Cc3ccccc3C2)NC(=O)[C@H](Cc2c[nH]c3ncccc23)NC(=O)[C@H]([C@@H](C)O)NC(=O)[C@@H]2CCCN2C(=O)[C@H](Cc2ccc(O)cc2)NC(=O)[C@H](C(C)(C)C)NC1=O` [Compound 196] (Ac-C[Tle]YPT[Trp(7-aza)][Aic]AY[αMeV]T[dC]-NH2; linker 1-12 via mXylylene) yielded an IC50 of 0.1 to 1 µM.

Molecule `CCC[C@@H]1NC(=O)[C@H](Cc2c[nH]c3ncccc23)NC(=O)[C@H]([C@@H](C)O)NC(=O)[C@@H](Cc2cnc[nH]2)NC(=O)[C@H](Cc2ccc(O)cc2)NC(=O)[C@H](C(C)(C)C)NC(=O)CCSCc2cccc(c2)CSC[C@@H](C(N)=O)NC(=O)[C@H]([C@@H](C)O)NC(=O)[C@H](CCC)NC(=O)[C@H](Cc2ccc(O)cc2)NC(=O)[C@H](CCC(=O)O)NC1=O` [Compound 204] ([Mpa][Tle]Y[dH]T[Trp(7-aza)][Nva]EY[Nva]TC-NH2; linker 1-12 via mXylylene) registered an IC50 of 1 to 21 µM.

With `CCC[C@@H]1NC(=O)[C@H](Cc2ccc(O)cc2)NC(=O)[C@H](CCC(=O)O)NC(=O)[C@H](CCC)NC(=O)[C@H](Cc2c[nH]c3ccccc23)N(C)C(=O)[C@H]([C@@H](C)O)NC(=O)[C@H](Cc2c[nH]cn2)NC(=O)[C@H](Cc2ccc(O)cc2)NC(=O)[C@H](C(C)(C)C)NC(=O)CCSCc2cccc(c2)CSC[C@@H](C(N)=O)NC(=O)[C@H]([C@@H](C)O)NC1=O` [Compound 206] ([Mpa][Tle]YHT[NMeW][Nva]EY[Nva]TC-NH2; linker 1-12 via mXylylene), the IC50 lay in the range of 50 to 100 µM.

Consider `CCC[C@@H]1NC(=O)[C@H](Cc2c[nH]c3ncccc23)NC(=O)[C@H]([C@@H](C)O)NC(=O)[C@H](Cc2c[nH]cn2)NC(=O)[C@H](Cc2ccc(O)cc2)NC(=O)[C@H](C(C)(C)C)NC(=O)CCSCc2cccc(c2)CSC[C@@H](C(N)=O)NC(=O)[C@H]([C@@H](C)O)NC(=O)[C@H](CCC)NC(=O)[C@H](Cc2ccc(O)cc2)NC(=O)[C@H](CCO)NC1=O` [Compound 274] ([Mpa][Tle]YHT[Trp(7-aza)][Nva][hSer]Y[Nva]TC-NH2; linker 1-12 via mXylylene), for which the IC50 lay within 0.1 to 1 µM.

For the molecule `CCC[C@@H]1NC(=O)[C@H](Cc2csc3ccccc23)NC(=O)[C@H]([C@@H](C)O)NC(=O)[C@H](Cc2c[nH]cn2)NC(=O)[C@H](Cc2ccc(O)cc2)NC(=O)[C@H](C(C)(C)C)NC(=O)CCSCc2cccc(c2)CSC[C@@H](C(N)=O)NC(=O)[C@H]([C@@H](C)O)NC(=O)[C@H](CCC)NC(=O)[C@H](Cc2ccc(O)cc2)NC(=O)[C@H](CCC(=O)O)NC1=O` [Compound 275] ([Mpa][Tle]YHT[Bta][Nva]EY[Nva]TC-NH2; linker 1-12 via mXylylene), the IC50 lay within 0.1 to 1 µM.

Take `CCC[C@@H]1NC(=O)[C@H](Cc2ccc3ccccc3c2)NC(=O)[C@H]([C@@H](C)O)NC(=O)[C@H](Cc2c[nH]cn2)NC(=O)[C@H](Cc2ccc(O)cc2)NC(=O)[C@H](C(C)(C)C)NC(=O)CCSCc2cccc(c2)CSC[C@@H](C(N)=O)NC(=O)[C@H]([C@@H](C)O)NC(=O)[C@H](CCC)NC(=O)[C@H](Cc2ccc(O)cc2)NC(=O)[C@H](CCC(=O)O)NC1=O` [Compound 276] ([Mpa][Tle]YHT[2Nal][Nva]EY[Nva]TC-NH2; linker 1-12 via mXylylene): the IC50 was in the range of 1 to 21 µM.

Take `CCC[C@@H]1NC(=O)[C@H](Cc2cccc3ccccc23)NC(=O)[C@H]([C@@H](C)O)NC(=O)[C@H](Cc2c[nH]cn2)NC(=O)[C@H](Cc2ccc(O)cc2)NC(=O)[C@H](C(C)(C)C)NC(=O)CCSCc2cccc(c2)CSC[C@@H](C(N)=O)NC(=O)[C@H]([C@@H](C)O)NC(=O)[C@H](CCC)NC(=O)[C@H](Cc2ccc(O)cc2)NC(=O)[C@H](CCC(=O)O)NC1=O` [Compound 277] ([Mpa][Tle]YHT[1Nal][Nva]EY[Nva]TC-NH2; linker 1-12 via mXylylene): the IC50 was in the range of 0.1 to 1 µM.

`CCC[C@@H]1NC(=O)[C@H](Cc2c[nH]c3ncccc23)NC(=O)[C@H]([C@@H](C)O)NC(=O)[C@H](Cc2c[nH]cn2)NC(=O)[C@H](Cc2ccc(O)cc2)NC(=O)[C@H](C(C)(C)C)NC(=O)CCSCc2cccc(c2)CSC[C@@H](C(N)=O)NC(=O)[C@H]([C@@H](C)O)NC(=O)[C@H](CCC)NC(=O)[C@H](Cc2ccc(O)cc2)NC(=O)[C@H](Cc2ccc(C(=O)O)cc2)NC1=O` [Compound 278] ([Mpa][Tle]YHT[Trp(7-aza)][Nva][Phe(4-COOH)]Y[Nva]TC-NH2; linker 1-12 via mXylylene): the IC50 lay within 21 to 50 µM.

Consider `CCC[C@@H]1NC(=O)[C@H](Cc2c[nH]c3ncccc23)NC(=O)[C@H]([C@@H](C)O)NC(=O)[C@H](Cc2c[nH]cn2)NC(=O)[C@H](Cc2ccc(O)cc2)NC(=O)[C@H](C(C)(C)C)NC(=O)CCSCc2cccc(c2)CSC[C@@H](C(N)=O)NC(=O)[C@H]([C@@H](C)O)NC(=O)[C@H](C2CCCCC2)NC(=O)[C@H](Cc2ccc(O)cc2)NC(=O)[C@H](CCC(=O)O)NC1=O` [Compound 285] ([Mpa][Tle]YHT[Trp(7-aza)][Nva]EY[Chg]TC-NH2; linker 1-12 via mXylylene), for which the IC50 lay within 0.1 to 1 µM.

For the molecule `CCC[C@@H]1NC(=O)[C@H](Cc2c[nH]c3ncccc23)NC(=O)[C@H](CC(N)=O)NC(=O)[C@H](Cc2c[nH]cn2)NC(=O)[C@H](Cc2ccc(O)cc2)NC(=O)[C@H](C(C)(C)C)NC(=O)CCSCc2cccc(c2)CSC[C@@H](C(N)=O)NC(=O)[C@H]([C@@H](C)O)NC(=O)[C@H](CCC)NC(=O)[C@H](Cc2ccc(O)cc2)NC(=O)[C@H](CCC(=O)O)NC1=O` [Compound 287] ([Mpa][Tle]YHN[Trp(7-aza)][Nva]EY[Nva]TC-NH2; linker 1-12 via mXylylene), the IC50 fell in the range of 0.1 to 1 µM.

For the molecule `CCC[C@@H]1NC(=O)[C@H](Cc2ccc(O)cc2)NC(=O)[C@H](CCC(=O)O)NC(=O)[C@](C)(CC)NC(=O)[C@H](Cc2c[nH]c3ncccc23)NC(=O)[C@H]([C@@H](C)O)NC(=O)[C@H](Cc2c[nH]cn2)NC(=O)[C@H](Cc2ccc(O)cc2)NC(=O)[C@H](C(C)(C)C)NC(=O)CCSCc2cccc(c2)CSC[C@@H](C(N)=O)NC(=O)[C@H]([C@@H](C)O)NC1=O` [Compound 291] ([Mpa][Tle]YHT[Trp(7-aza)][Iva]EY[Nva]TC-NH2; linker 1-12 via mXylylene), the IC50 was in the range of 0.1 to 1 µM.

For `C[C@@H](O)[C@@H]1NC(=O)[C@H](Cc2c[nH]cn2)NC(=O)[C@H](Cc2ccc(O)cc2)NC(=O)[C@H](C(C)(C)C)NC(=O)CCSCc2cccc(c2)CSC[C@@H](C(N)=O)NC(=O)[C@H]([C@@H](C)O)NC(=O)[C@](C)(c2ccccc2)NC(=O)[C@H](Cc2ccc(O)cc2)NC(=O)[C@H](CCC(=O)O)NC(=O)C(C)(C)NC(=O)[C@H](Cc2c[nH]c3ncccc23)NC1=O` [Compound 293] ([Mpa][Tle]YHT[Trp(7-aza)][Aib]EY[X1]TC-NH2; linker 1-12 via mXylylene), the IC50 fell in the range of 0.001 to 0.1 µM.
